Measurements taken from patent publication US6903126B2, “1-Aryl-2-N-, S- or O-substituted benzimidazole derivatives, their use for the production of pharmaceutical agents as well as pharmaceutical preparations that contain these derivatives” (Schering AG, priority 2001, dated 2005).
pIC50: −log10 of the molar value.

Tested on: primary rat microglia
Assay: Inhibition of microglia activation (Aβ-peptide stimulation, MTS reduction)
Format: cell-based
Settings: Aβ-peptide-activated primary rat microglia, compound added day 5, MTS reduction on day 7, relative to DMSO control
Method: For in vitro production of Aβ-activated microglia, primary rat microglia with synthetic Aβ-peptide are incubated:
For simulation of Aβ deposits, synthetic Aβ peptide is dried on 96-hole tissue culture plates. A peptide stock solution is diluted by 2 mg/ml of H2O 1:50 in H2O. To coat the 96-hole plates, 30 μl of this dilute peptide solution/hole is used, and it is dried overnight at room temperature.
Primary rat microglia are harvested by mixed glia cultures, which were obtained from P3 rat brains. In the production of mixed glia cultures, the brains are taken from 3-day-old rats, and meninges are removed. The isolation of cells is achieved by trypsinization (0.25% trypsin solution, 15 minutes, 37° C.)). After undigested tissue fragments are separated with the aid of a 40 μm nylon mesh, the isolated cells are centrifuged off (800 rpm/10 minutes). The cell pellet is resuspended in the culture medium and moved into 100 ml tissue culture flasks (1 brain/tissue culture flask). […]
To quantify the microglia reactivity, the metabolic activity is measured on cultivation day 7 via the reduction of MTS (3-(4,5-dimethylthiazol-2-yl)-5-(3-carboxymethoxyphenyl)-2-(sulfophenyl)-2H-tetrazolium), Owen's reagent, Baltrop, J. A. et al. Bioorg. & Med. Chem. Lett., 1, 6111 (1991)). […]

| SMILES | pIC50 |
| --- | --- |
| COC(=O)CCCCCOc1ccc2nc(S(=O)(=O)Cc3ccccc3)n(-c3ccc(C)cc3)c2c1 [Example 9, 6-[[1-(4-Methylphenyl)-2-(phenylmethanesulfonyl)-1H-benzimidazol-6-yl]oxy]hexanoic acid methyl ester] | 6.34 |
| COC(=O)CCCCCOc1ccc2nc(N3CCOCC3)n(-c3ccccc3)c2c1 [Example 15, 6-[[2-(Morpholin-4-yl)-1-phenyl-1H-benzimidazol-6-yl]oxy]hexanoic acid methyl ester] | 6.06 |
